We go through 1 molecule from US20160220590A1, “Formulations and Dosage Forms of Oxidized Phospholipids” (Vascular Biogenics Ltd., priority 2011, published 2016).

A short description of series [1]: Stability of VB-201 in Lauroglycol FCC. The series is classed as physicochemical. The note with it: over the course of 66 days; data not shown. An excerpt:
(§1) VB-201 was also found to be stable in Lauroglycol FCC over the course of 66 days (data not shown).

The conditions of series [2]: oral, daily dosages of 80 mg VB-201 per day or less; cited from earlier work.
A short description of series [3]: Solubility of VB-201 in molten PEG6000. The series is classed as physicochemical. The note with it: 65° C. to 105° C., 30 hours; no detectable VB-201. Here is the method: Nine pieces of caked, non-ground VB-201 were submerged in molten PEG6000 at 65° C. and stirred slowly using a paddle mixer. The mix was held for approximately two hours at this temperature, examined visually for the dissolution state of the VB-201, and three samples of the liquid PEG6000 were then taken for analysis. The temperature was then raised by 10° C. and the process was repeated. The process was repeated in 10° C. steps until the mix reached a final temperature of 105° C. The entire process lasted 30 hours.
After 30 hours and at a temperature of 105° C., the PEG6000 had slowly turned lightly yellow (normal for prolonged heating of PEG6000 in air), yet there was no significant visible dissolution of VB-201 or reduction in size of the VB-201 pieces. After taking the final analytical samples the VB-201 pieces were removed from the melt, dried from PEG6000, and weighed.

Series [4] is described as follows: Pharmacokinetic study, single oral dose of 40 mg VB-201 to human subjects. It counts as in vivo. The note with it: single oral dose 40 mg VB-201, in all subjects. The protocol:
Pharmacokinetic studies were performed using two different VB-201 formulations (formulation 10 of Example 13 and formulation 4 of Example 11). Single oral doses of 40 mg VB-201 were administered to 26 human subjects for each formulation, and the VB-201 plasma concentrations were measured for a period of 144 hours after dosing for each subject.

Series [5] can be described thus: Solubility of VB-201 in Lauroglycol FCC. The series is classed as physicochemical. The note with it: in Lauroglycol FCC (propylene glycol laurate).
Text: as §1

A short description of series [6]: Aqueous solubility of VB-201. The series is classed as physicochemical. The note with it: at each tested pH: 0.1 M HCl (pH 1), 50 mM phosphate buffers (pH 5 and 7). Here is the method:
The aqueous solubility of VB-201 was determined by suspending VB-201 in aqueous solutions of 0.1 M HCl (pH 1) or in 50 mM phosphate buffers (pH 5 and 7). After initial hand mixing, the preparations were further mixed by vortexing and bath sonication to try to bring about dissolution of the drug. Optical microscopy was used to examine for the presence of undissolved material. […] Thus, VB-201′ is relatively water-soluble.

Some results are limits rather than exact numbers.

Consider `CCCCCCCCCCCCCCCCOCC(COP(=O)([O-])OCC[N+](C)(C)C)OCCCCC(=O)O` (stereo not drawn) [VB-201, 1-hexadecyl-2-(4′-carboxybutyl)-glycero-3-phosphocholine], for which the “stability in Lauroglycol FCC” value in series [1] was “stable”. In series [2], the safety and tolerability entry is listed as “safe, well-tolerated”. Besides, the “VB-201 concentration in molten PEG6000” value in series [3] is below 0.5 mg/gram. Also, the “time VB-201 plasma concentrations were above the assay limit of quantification” value in series [4] is on record as “at least 96 hours”. Further, the “solubility of VB-201 in Lauroglycol FCC” value in series [5] was “at least 255 mg per gram”. In addition, the “aqueous solubility of VB-201” value in series [6] was above 225 mg/gram.
